Reference: paper PMC6865181, “Role of L-Type Amino Acid Transporter 1 (LAT1) for the Selective Cytotoxicity of Sesamol in Human Melanoma Cells” (Molecules, 2019)
Marks after values point to notes of the source that are not given here.

Assays:
LAT1 [1] = molecular target: T1, LAT1 (Homo sapiens, UniProt Q01650); experiment: LAT1 function: competitive uptake of L-dopa in SK-MEL-2 cells; type: cell-based; details: for Percent Inhibition of L-Dopa Distribution Volume: competitor (BCH, L-tyrosine, sesamol 1 mM; L-leucine, L-alanine 2 mM; melphalan 0.05 mM); for L-Dopa Distribution Volume in presence of the compound: competitor at the concentration printed in the row
Description: (§1) SK-MEL-2 and Vero cells were seeded separately into 24-well plates at 2 × 10^5 cells/well for 24 h. The media was removed, and the cells pre-incubated with HBSS pH 7.4 for 10 min. The cells were used for the following experiments.
(§2) Sesamol was also investigated for its affinity to LAT1. […] Competitive uptake was performed for 10 min then the cells were washed twice with ice-cold PBS. The L-dopa was solubilized by 0.1 M HCl and the cell lysate (25 µL) was pipetted for protein determination. […] Intracellular and extracellular L-dopa was quantified by the HPLC assay. The L-dopa uptake was represented as the distribution volume of L-dopa in a cell to media ratio (C/M ratio) as calculated in Section 4.3.1.
The analysis was based on a BDS Hypersil C-18 column, (4.6 × 250 mm, 5 µm packing, Thermo Fisher Scientific, Waltham, MA, USA). The column temperature was set at 30 °C with a flow rate of 0.8 mL/min. The mobile phase for sesamol quantification was 70% methanol in water, vs. 20% methanol in water for L-dopa. […] The validated sesamol quantification conducted using sesamol spiked cell lysate with high selectivity and clear separation from the endogenous cell lysate as previously reported. The % bias and % precision was determined within and between days, each was maintained below 6%.

LAT1 [2] = experiment: LAT1 function: competitive uptake of L-dopa in Vero cells; type: cell-based, African green monkey; details: L-dopa 0.1 mM, 10 min; for Percent Inhibition of L-Dopa Distribution Volume: competitor (BCH, L-tyrosine, sesamol 1 mM; L-leucine, L-alanine 2 mM; melphalan 0.05 mM); for L-Dopa Distribution Volume in presence of the compound: competitor at the concentration printed in the row
Description: as §1, §2
(§3) Quantitative analysis of sesamol and L-dopa were performed using a Shimadzu HPLC (LC-2030C-3D) with a UV photodiode array detector (DAD) (Kyoto, Japan). The analysis was based on a BDS Hypersil C-18 column, (4.6 × 250 mm, 5 µm packing, Thermo Fisher Scientific, Waltham, MA, USA). The column temperature was set at 30 °C with a flow rate of 0.8 mL/min. The mobile phase for sesamol quantification was 70% methanol in water, vs. 20% methanol in water for L-dopa. The respective detection wavelength and elution time for sesamol and L-dopa was 297 nm and 280 nm and 4.2 and 4.5 min. The validated sesamol quantification conducted using sesamol spiked cell lysate with high selectivity and clear separation from the endogenous cell lysate as previously reported. The % bias and % precision was determined within and between days, each was maintained below 6%.

LAT1 [3] = molecular target: T1, LAT1; experiment: cell-based; details: for Percent Inhibition of Sesamol Distribution Volume / Sesamol Distribution Volume in presence of the compound: SK-MEL-2, sesamol 0.1 mM, 10 min; for Percent Inhibition of Sesamol Distribution Volume: competitor at the concentration (BCH, L-tyrosine, L-dopa 1 mM; L-leucine, L-alanine 2 mM; melphalan 0.05 mM); for Sesamol Distribution Volume in presence of the compound: competitor at the concentration printed in the row
Description: as §1
(§4) Competitive inhibition of uptake of sesamol was done in both SK-MEL-2 and the Vero cells. […] The cells were washed twice with ice-cold PBS, solubilized in methanol, and centrifuged at 2400× g, at 4 °C for 20 min. The precipitated protein was re-solubilized by 0.1 M NaOH prior to protein determination. The sesamol content was quantified using HPLC assay. The cellular uptake of sesamol was calculated as per the C/M ratio.
as §3

LAT1 [4] = details: Vero cells, sesamol 0.1 mM, 10 min; for Percent Inhibition of Sesamol Distribution Volume: competitor at the concentration (BCH, L-tyrosine, L-dopa 1 mM; L-leucine, L-alanine 2 mM; melphalan 0.05 mM); for Sesamol Distribution Volume in presence of the compound: competitor at the concentration printed in the row
Description: as §1, §4, §3

SK-MEL-2 cells = experiment: Antiproliferative effect, neutral red uptake assay, SK-MEL-2 cells; type: cell-based, human
Description: (§5) The SK-MEL-2 and Vero cells (at 5 × 10^4 cells/well) were seeded separately into 96-well plates. After the cells were exposed to the tested compounds (200 µL) for 24 h, neutral red (50 µg/mL) (Sigma-Aldrich, St. Louis, MO, USA) was incorporated into the cells for 2 h. The cells were then washed with ice-cold PBS and lysed using 0.33% HCl in isopropanol. The absorbances of neutral red were measured at 540 nm with a reference wavelength of 660 nm using a UV-microplate reader (Perkin Elmer, Waltham, MA, USA). […] The selective index was calculated from the ratio of the IC50 of Vero and SK-MEL-2 cells.

Vero cells = experiment: Antiproliferative effect, neutral red uptake assay, Vero cells; type: cell-based, African green monkey
Description: as §5

[5] = SK-MEL-2, L-dopa 0.1 mM, 10 min
[6] = SK-MEL-2, read-out: Percent Inhibition of L-Dopa Distribution Volume
[7] = SK-MEL-2, read-out: Percent Inhibition of Sesamol Distribution Volume

T1 sequence (Q01650 whole entry): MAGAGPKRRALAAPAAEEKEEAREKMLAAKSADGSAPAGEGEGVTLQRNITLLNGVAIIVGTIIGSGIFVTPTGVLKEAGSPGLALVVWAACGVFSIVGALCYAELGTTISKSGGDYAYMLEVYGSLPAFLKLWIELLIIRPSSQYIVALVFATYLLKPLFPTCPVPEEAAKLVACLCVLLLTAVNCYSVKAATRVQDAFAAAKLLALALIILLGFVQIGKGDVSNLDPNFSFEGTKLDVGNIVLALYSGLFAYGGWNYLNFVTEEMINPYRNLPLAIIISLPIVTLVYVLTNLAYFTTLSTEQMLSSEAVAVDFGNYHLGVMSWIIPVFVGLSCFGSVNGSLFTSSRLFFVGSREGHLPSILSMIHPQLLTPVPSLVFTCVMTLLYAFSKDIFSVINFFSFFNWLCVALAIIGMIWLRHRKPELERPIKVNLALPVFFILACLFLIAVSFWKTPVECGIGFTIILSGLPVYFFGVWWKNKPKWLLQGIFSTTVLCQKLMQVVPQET
T1 sequence (P08195 102-630 partner): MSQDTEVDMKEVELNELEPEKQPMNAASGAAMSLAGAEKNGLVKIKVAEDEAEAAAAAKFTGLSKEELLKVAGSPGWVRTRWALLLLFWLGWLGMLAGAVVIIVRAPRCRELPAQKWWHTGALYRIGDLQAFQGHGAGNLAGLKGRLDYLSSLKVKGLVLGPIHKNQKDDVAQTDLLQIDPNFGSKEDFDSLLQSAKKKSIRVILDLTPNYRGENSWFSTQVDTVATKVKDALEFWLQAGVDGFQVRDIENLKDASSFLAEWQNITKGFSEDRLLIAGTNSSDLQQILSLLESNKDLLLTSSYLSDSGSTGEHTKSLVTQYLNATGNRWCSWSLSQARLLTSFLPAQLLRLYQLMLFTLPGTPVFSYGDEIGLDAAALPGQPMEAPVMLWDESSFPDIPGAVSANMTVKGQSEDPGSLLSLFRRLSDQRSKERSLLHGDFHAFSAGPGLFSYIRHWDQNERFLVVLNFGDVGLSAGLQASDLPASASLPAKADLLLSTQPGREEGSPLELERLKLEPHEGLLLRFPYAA

| Percent Inhibition of L-Dopa Distribution Volume (LAT1 [1]; [5]) [%] | Percent Inhibition of Sesamol Distribution Volume (LAT1 [3]) [%] | SMILES | L-Dopa Distribution Volume in presence of the compound (LAT1 [1]; [5]) [µL/mg Protein] | Percent Inhibition of L-Dopa Distribution Volume (LAT1 [2]) [%] | L-Dopa Distribution Volume in presence of the compound (LAT1 [2]) [µL/mg Protein] | Sesamol Distribution Volume in presence of the compound (LAT1 [3]) [µL/mg Protein] | Percent Inhibition of Sesamol Distribution Volume (LAT1 [4]) | Sesamol Distribution Volume in presence of the compound (LAT1 [4]) [µL/mg Protein] | cytotoxicity compared to untreated cells (SK-MEL-2 cells; SK-MEL-2 cells, BCH 1 mM) | cytotoxicity compared to untreated cells (Vero cells; Vero cells, BCH 1 mM) | inhibition at 2000 µM (LAT1 [1]; [6]) [%] | inhibition at 2000 µM (LAT1 [3]; [7]) [%] | L-Dopa Distribution Volume, control (no competitor) (LAT1 [1]; SK-MEL-2, L-dopa 0.1 mM, 10 min, 37 °C) | L-Dopa Distribution Volume, control (no competitor) (LAT1 [2]; 37 °C) | inhibition at 1000 µM (LAT1 [3]; [7]) [%] | inhibition at 50 µM (LAT1 [1]; [6]) [%] | inhibition at 50 µM (LAT1 [3]; [7]) [%] | IC50 (SK-MEL-2 cells; Homo sapiens, SK-MEL-2, 24 h, read-out: IC50 (cell viability)) [µM] | Selective Index (SK-MEL-2 cells; ratio of the IC50 of Vero and SK-MEL-2 cells) | IC50 (Vero cells; Chlorocebus sabaeus, Vero, 24 h, read-out: IC50 (cell viability)) [µM] |
| --- | --- | --- | --- | --- | --- | --- | --- | --- | --- | --- | --- | --- | --- | --- | --- | --- | --- | --- | --- | --- |
| 82 | 55 | NC1(C(=O)O)CC2CCC1C2 (stereo not drawn) [BCH, 2-Amino-2-norbornanecarboxylic acid] | 67.3 ± 14.0 | 69 | 47.9 ± 3.7 | 10.3 ± 0.9 | 42% | 10.4 ± 1.9 | no cytotoxicity | no cytotoxicity |  |  |  |  |  |  |  |  |  |  |
|  |  | C[C@H](N)C(=O)O [L-Alanine, L-alanine] | 121.2 ± 3.6 | 35 | 101.3 ± 4.0 | 13.1 ± 0.3 | 25% | 13.3 ± 2.0 |  |  | 67 | 44 |  |  |  |  |  |  |  |  |
|  |  | N[C@@H](Cc1ccc(O)c(O)c1)C(=O)O [L-Dopa, L-dopa] |  |  |  | 7.4 ± 0.8 | 40% (10.8 ± 2.0)^b,c |  |  |  |  |  | 0% (370.6 ± 13.0)^a µL/mg Protein | 0% (155.6 ± 17.8)^a µL/mg Protein | 68 |  |  |  |  |  |
| 72 | 75 | N[C@@H](Cc1ccc(O)cc1)C(=O)O [L-tyrosine] |  | 69 | 48.7 ± 11.0 | 5.8 ± 0.2 | 41% |  |  |  |  |  |  |  |  |  |  |  |  |  |
|  |  | N[C@@H](Cc1ccc(N(CCCl)CCCl)cc1)C(=O)O [Melphalan, melphalan] | 196.6 ± 20.3 | 39 | 95.5 ± 11.2 | 9.4 ± 0.7 | 35% | 11.7 ± 0.7 |  |  |  |  |  |  |  | 47 | 60 | 100 | 6.0 | 600 ± 300 |

| SMILES | Percent Inhibition of L-Dopa Distribution Volume (LAT1 [1]; [5]) [%] | Percent Inhibition of Sesamol Distribution Volume (LAT1 [3]) [%] | L-Dopa Distribution Volume in presence of the compound (LAT1 [1]; [5]) [µL/mg Protein] | Percent Inhibition of L-Dopa Distribution Volume (LAT1 [2]) [%] | L-Dopa Distribution Volume in presence of the compound (LAT1 [2]) [µL/mg Protein] | Sesamol Distribution Volume in presence of the compound (LAT1 [3]) [µL/mg Protein] | Percent Inhibition of Sesamol Distribution Volume (LAT1 [4]) | Sesamol Distribution Volume in presence of the compound (LAT1 [4]) [µL/mg Protein] | cytotoxicity compared to untreated cells (SK-MEL-2 cells; SK-MEL-2 cells, BCH 1 mM) | cytotoxicity compared to untreated cells (Vero cells; Vero cells, BCH 1 mM) | inhibition at 2000 µM (LAT1 [1]; [6]) [%] | inhibition at 2000 µM (LAT1 [3]; [7]) [%] | L-Dopa Distribution Volume, control (no competitor) (LAT1 [1]; SK-MEL-2, L-dopa 0.1 mM, 10 min, 37 °C) | L-Dopa Distribution Volume, control (no competitor) (LAT1 [2]; 37 °C) | inhibition at 1000 µM (LAT1 [3]; [7]) [%] | inhibition at 50 µM (LAT1 [1]; [6]) [%] | inhibition at 50 µM (LAT1 [3]; [7]) [%] | IC50 (SK-MEL-2 cells; Homo sapiens, SK-MEL-2, 24 h, read-out: IC50 (cell viability)) [µM] | Selective Index (SK-MEL-2 cells; ratio of the IC50 of Vero and SK-MEL-2 cells) | IC50 (Vero cells; Chlorocebus sabaeus, Vero, 24 h, read-out: IC50 (cell viability)) [µM] |
| --- | --- | --- | --- | --- | --- | --- | --- | --- | --- | --- | --- | --- | --- | --- | --- | --- | --- | --- | --- | --- |
| CC(C)C[C@H](N)C(=O)O [L-leucine, L-Leucine] | 75 | 50 | 94.1 ± 13.5 | 75 | 39.1 ± 2.3 | 11.7 ± 0.7 | 23% | 13.8 ± 1.4 |  |  |  |  |  |  |  |  |  |  |  |  |
